Several values for one entry are separate records, joined by “and”; a condition that tells them apart may be missing. Equal entries are not always repeated.
Legend:
[1] = system: rabbits; experiment: Brain/body temperature (pyrogenic response) after intraventricular infusion in rabbits; format: in vivo, rabbit; conditions: for ΔTmax, maximum increase in temperature: intraventricular, brain temperature, single rabbits, listed as AcMur--Ala--iGln
Description: (§1) Acetaminophen (Sigma) was dissolved in sterile pyrogen-free saline.

[2] = system: cats; experiment: Intraventricular infusion in cats, SWS, REM sleep and brain temperature; format: in vivo, cat; conditions: intraventricular 200-500 pmol, four cats
Description: as §1
Each of four cats was infused intraventricularly one or more times with AcMur-ala-igln or AcMur-ala-igln-lys (200-500 pmol). The responses were more complex than those in rabbits. […] Only after the febrile response had reached its peak did the cats start to sleep for abnormally long periods in deep stage II SWS alternating with periods of REM sleep. The SWS and temperature responses of one cat to 250 pmol of AcMur-ala-igln-lys delivered intraventricularly during 15 min prior to start of recording is shown in FIG. 3. […] A similar delay in the onset of excess SWS was noted by Garcia-Arraras (12) after infusion of natural sleep factor in cats.
Excess SWS induced by AcMur-ala-igln-lys lasted for 3-8 hr after infusion. (A) - - - , Control=37.7 plus or minus 0.2° C. (B) - - - , Control=27 plus or minus 5%. Similar responses were observed following one or more infusions of AcMur-ala-igln or AcMur-ala-igln-lys in each of four cats.

[3] = system: rabbits; experiment: Intraperitoneal injection / stomach tube administration in rabbits, sleep response; format: in vivo, rabbit; conditions: two rabbits, intraperitoneal injection / stomach tube (5 mg/kg)
Description: In two rabbits, sleep responses were recorded after intraperitoneal injection of AcMur-ala-igln by stomach tube (5 mg/kg).

[4] = system: rabbits; experiment: Antipyretic (acetaminophen, indomethacin, aspirin) with AcMur-ala-igln in rabbits, SWS and temperature; format: in vivo
Description: as §1
For this reason, the less toxic acetaminophen was used to suppress the pyrogenic effects of AcMur-ala-igln.
In FIG. 5, the symbols mean the following: , AAP alone; , AAP followed by 120 μg of AcMur-ala-igln intravanously at time zero. Each value is mean ±SEM of six assays in six rabbits. In A, the average of the individual increases (ΔT values) in rectal temperature induced by AcMur-ala-igln together with AAP is compared with that induced by AAP alone in each of six rabbits.

[5] = system: squirrel monkey; conditions: cited abstract (reference 2); cited from earlier work
[6] = system: rabbits; experiment: Intravenous injection in rabbits, SWS and side effects
Description: New Zealand rabbits (male, 3-5 kg) or domestic cats were adapted to the infusion cages in a temperature-controlled room (21°-2° C.) on a 12:12 light/dark cycle. Intraventricular infusions or systemic injections were carried out between 0800 and 1000 hr and were followed by 6 or more hr of recording without disturbing the animals. […] Indomethacin for intravenous injection was dissolved in a small amount of EtOH and diluted with 150 mM NaHCO3 to a concentration of 5 mg/ml. Acetaminophen (Sigma) was dissolved in sterile pyrogen-free saline.
(§2) EEG, electro-oculogram, and bodily movements were recorded on Grass polygraphs. The amplitude of EEG slow waves was recorded as the rms-rectified output from a 0.5- to 4-Hz bandpass filter (Bunco Electronics, Sharon, (T); the rms component was integrated and the integral was printed on tape every 2 min, thus providing an objective measure of the product of amplitude and duration of EEG slow waves. Each record was also analyzed visually for duration of SWS in rabbits and for both SWS and REM sleep in cats. The infusion and recording systems and examples of analysis of records are described in 1, 12, 15.
Each value is mean ±SEM of 11 assays in eight rabbits.

[7] = system: rabbits; experiment: Intraventricular infusion in rabbits, EEG slow-wave sleep (SWS); conditions: for % SWS, 6 hr post infusion, Expt / % SWS Expt.: hr 2-6 after infusion; for % SWS, 6 hr post infusion, Expt: mean ± SEM or range
Description: Calibrated glass bead thermistors (Fenwall; 1.2-mm outside diameter, 50 omega/°C.) were implanted through burr holes in frontal bone: the thermistor leads were buried in a mound of dental cement that also insulated the screw electrodes and supported a 9-pin miniature electrical connector. In some experiments, the rectal temperatures were measured at intervals by using a calibrated thermistor probe; temperatures estimated from the implanted brain thermistors were generally within 0.3° C. of simultaneously recorded rectal temperature.
New Zealand rabbits (male, 3-5 kg) or domestic cats were adapted to the infusion cages in a temperature-controlled room (21°-2° C.) on a 12:12 light/dark cycle. Intraventricular infusions or systemic injections were carried out between 0800 and 1000 hr and were followed by 6 or more hr of recording without disturbing the animals.
as §2

[8] = much smaller doses delivered intraventricularly

Q: For `CC(=O)N[C@@H]1[C@@H](O[C@H](C)C(=O)N[C@@H](C)C(=O)N[C@H](CCC(=O)O)C(N)=O)[C@H](O)[C@@H](CO)O[C@H]1O` [MDP, 2-(2-acetamido-2-desoxy-3-O-D-glucopyranosyl)-D-propionyl-L-alanyl-D-isoglutamine], which “average ΔT” value ([1]; AcMur-ala-igln alone (Table 1)) is on record?
A: The value was 1.9±0.2 °C.

Q: And the “ΔTmax, maximum increase in temperature” value ([1]; dose 75 pmol)?
A: Its value is 2.8 °C and 1.6 °C.

Q: What about the “ΔTmax, maximum increase in temperature” value ([1]; dose 125 pmol) of the same compound?
A: The value was 1.1 °C and 1.5 °C.

Q: And the “REM sleep during 2-4 hr after the infusion” value [2]?
A: Its value is “completely suppressed”.

Q: And the “SWS after the initial period of sleep suppression” value [2]?
A: The value was “abnormally long period of deep SWS”.

Q: And the “increase of SWS for 6 hr” value [3]?
A: The value was “ca. 50%”.

Q: And the “hourly % SWS (mean ±SEM)” value ([4]; AAP 10 mg/kg i.v. followed 30 min later by AcMur-ala-igln 120 μg i.v., six rabbits, FIG. 5)?
A: Its value is 67±3%.

Q: What about the “time after which toxic reactions developed” value ([4]; AcMur-ala-igln 120 μg/kg i.v. after acetaminophen 10 mg/kg i.v.) of the same compound?
A: The value was “about 4 hr”.

Q: What about the “average ΔT, rectal temperature” value ([4]; AcMur-ala-igln i.v. with AAP, six rabbits) of the same compound?
A: Its value is “less than 0.7 °C”.

Q: What about the “effect on non-REM and REM sleep” value [5] of the same compound?
A: The value was “induces non-REM but not REM sleep”.

Q: What about the “time of return of sleep response to near control values” ([6]; intravenous 150-200 nmol/kg) of the same compound?
A: The value was at most 5 h.

Q: And the “time of maximum sleep response after injection” value ([6]; intravenous 150-200 nmol/kg (75-100 μg), FIG. 4)?
A: Its value is “about 3 hr”.

Q: What about the “side effects noted in some animals” value ([6]; intravenous 150-200 nmol/kg, after 3 to 4 hr) of the same compound?
A: The value was “abnormal lacrimation, nasal secretion, and inflammation”.

Q: And the “time after which deleterious side effects occurred” value ([6]; intravenous, doses sufficient to induce excess SWS and pyrexia)?
A: Its value is “about 3 hr”.

Q: And the “number of episodes of SWS having durations of 1-8 min” value ([7]; hr 2 to hr 6 after administration, eight rabbits, FIG. 2)?
A: Its value is “no significant effect”.

Q: And the “number of episodes of SWS having durations greater than 8 min” value ([7]; hr 2 to hr 6 after administration, eight rabbits, FIG. 2, P<0.0125)?
A: Its value is “increased”.

Q: And the “amount required to induce a comparable increase of SWS for 6 hr, relative to the natural product (factor S)” value ([7]; intraventricular)?
A: Its value is “roughly 10 times”.

Q: What about the “hourly percentage of SWS” value ([7]; intraventricular 75-150 pmol, for 6 hr or more after the infusion, control about 40%) of the same compound?
A: Its value is “about 60%”.

Q: And the “persistence of the effects” value ([7]; intraventricular infusion)?
A: The value was 6 to 12 h.

Q: What about the “% SWS, 6 hr post infusion, Expt” value ([7]; intraventricular, dose 0.01 nmol) of the same compound?
A: Its value is 39 ± 4%.

Q: And the “% SWS, 6 hr post infusion, Expt” value ([7]; intraventricular, dose 0.05 nmol)?
A: Its value is 49 ± 3%.

Q: What about the “% SWS Expt.” value ([7]; intraventricular, dose 75 pmol, single rabbits, listed as AcMur--Ala--iGln) of the same compound?
A: Its value is 55% and 43%.

Q: And the “% SWS, 6 hr post infusion, Expt” value ([7]; intraventricular, dose 0.1 nmol)?
A: Its value is 62 ± 7%.

Q: What about the “% SWS Expt.” value ([7]; intraventricular, dose 120 pmol, single rabbits, listed as AcMur--Ala--iGln) of the same compound?
A: Its value is 94% and 69%.

Q: And the “Amplitude of slow wave, Expt.” value ([7]; intraventricular, dose 120 pmol, rms-rectified voltage of 0.5 to 4 Hz band, single rabbits, listed as AcMur--Ala--iGln)?
A: The value was 56 μV and 42 μV.

Q: And the “% SWS Expt.” value ([7]; intraventricular, dose 125 pmol, single rabbits, listed as AcMur--Ala--iGln)?
A: Its value is 38% and 60%.

Q: And the “% SWS, 6 hr post infusion, Expt” value ([7]; intraventricular, dose 1.0 nmol)?
A: Its value is 76 ± 7%.

Q: What about the “% SWS, 6 hr post infusion, Expt” value ([7]; intraventricular, dose 10.0 nmol) of the same compound?
A: Its value is 65 ± 6%.

Q: What about the deleterious effects [7, 8] of the same compound?
A: The deleterious effects was “did not cause deleterious effects”.

Q: What about the “duration of excess SWS” value [7, 8] of the same compound?
A: Its value is 6 to 10 h.
